Results on 23 molecules are retold here after ChEMBL document CHEMBL2375312, “Novel and highly potent histamine H3 receptor ligands. Part 3: an alcohol function to improve the pharmacokinetic profile” (Bioorg Med Chem Lett, 2013).

As usually defined, the Tmax is the time from dosing to the highest level. Broadly, the half-life is how long it takes for the measured level to halve. What is called AUC is the area under the concentration-time curve, a measure of exposure. The low end stands for less exposure, the high end for more exposure. A word on the Cmax: it is the highest concentration seen after dosing. In general, ED50 refers to the dose that gives a 50% effect, or the effect in half of the subjects. A word on the Ki: it is a dissociation constant, usually derived from enzyme kinetics or from competition with a known ligand. Usually AUC(0-t) stands for exposure summed from dosing to a finite time, without extrapolation to infinity. The low end stands for low exposure, the high end for high exposure. Broadly, the IC50 is the concentration at which inhibition is half-maximal.

The nature of data set [1]: Tmax in Swiss mouse brain. The data set is classed as ADME, tissue-based.
A short description of data set [2]: Half life in Swiss mouse brain. The data set is classed as ADME, tissue-based.
The nature of data set [3]: Half life in Swiss mouse plasma. The data set is classed as ADME.
A short description of data set [4]: AUC in Swiss mouse plasma. Type of data set: ADME.
A short description of data set [5]: Cmax in Swiss mouse plasma. The data set is classed as ADME.
The test system of data set [6] is Mus musculus. Nature of the data set: Inverse agonist activity at histamine H3 receptor in po dosed Swiss mouse assessed as release of N-tele-methylhistamine in brain after 90 mins by enzyme-immunoassay. The data set is classed as functional. The note with it: 1.5 h.
Data set [7] in a line: Cmax in Swiss mouse brain. Type of data set: ADME, tissue-based.
Data set [8] is described as follows: Tmax in Swiss mouse plasma. The data set is classed as ADME.
Data set [9] can be described thus: AUC in Swiss mouse brain. Type of data set: ADME, organism-based.
Data set [10] is described as follows: Half life of the compound. The data set is classed as physicochemical.
Data set [11] addresses Histamine H3 receptor (Homo sapiens, UniProt Q9Y5N1). Nature of the data set: Displacement of [125I]-iodoproxyfan from human recombinant histamine H3 receptor expressed in HEK293 cells after 1 hr by gamma counting analysis. Type of data set: cell-based.
A short description of data set [12]: AUC (0 to 8 hrs) in Swiss mouse plasma at 10 mg/kg, po by […] analysis. The data set is classed as ADME, organism-based. The arrangement: time < 8 hr, dose 10 mg/kg, route oral.
The test system of data set [13] is Mus musculus. Nature of the data set: Inverse agonist activity at histamine H3 receptor in po dosed Swiss mouse assessed as release of N-tele-methylhistamine in brain after 90 mins by enzyme-immunoassay relative to ciproxifan. The data set is classed as functional.
For the next data set, the target named is Cytochrome P450 2C9 (Homo sapiens, UniProt P11712). Nature of the data set: Inhibition of human recombinant CYP2C9. The data set is classed as ADME.
Data set [14] concerns the target Histamine H3 receptor (Mus musculus, UniProt P58406). Nature of the data set: Displacement of [125I]-iodoproxyfan from histamine H3 receptor in mouse brain cortex after 1 hr by gamma counting analysis. The data set is classed as tissue-based. (In general: Loss of bound radioactivity is the signal in a displacement assay; it reports binding, not function.)
The nature of data set [15]: AUC (0 to 8 hrs) in Swiss mouse brain at 10 mg/kg, po by […] analysis. The arrangement: time < 8 hr, dose 10 mg/kg, route oral. The data set is classed as ADME, organism-based.
For a further data set, the target named is Cytochrome P450 3A4 (Homo sapiens, UniProt P08684). Nature of the data set: Inhibition of human recombinant CYP3A4. The data set is classed as ADME.
The target in the next data set is Cytochrome P450 2D6 (Homo sapiens, UniProt P10635). Nature of the data set: Inhibition of human recombinant CYP2D6. Type of data set: ADME.
For data set [16], the target named is Voltage-gated inwardly rectifying potassium channel KCNH2 (Homo sapiens, UniProt Q12809). Nature of the data set: Binding affinity to human ERG.
Voltage-gated inwardly rectifying potassium channel KCNH2, sequence (Q12809 whole entry): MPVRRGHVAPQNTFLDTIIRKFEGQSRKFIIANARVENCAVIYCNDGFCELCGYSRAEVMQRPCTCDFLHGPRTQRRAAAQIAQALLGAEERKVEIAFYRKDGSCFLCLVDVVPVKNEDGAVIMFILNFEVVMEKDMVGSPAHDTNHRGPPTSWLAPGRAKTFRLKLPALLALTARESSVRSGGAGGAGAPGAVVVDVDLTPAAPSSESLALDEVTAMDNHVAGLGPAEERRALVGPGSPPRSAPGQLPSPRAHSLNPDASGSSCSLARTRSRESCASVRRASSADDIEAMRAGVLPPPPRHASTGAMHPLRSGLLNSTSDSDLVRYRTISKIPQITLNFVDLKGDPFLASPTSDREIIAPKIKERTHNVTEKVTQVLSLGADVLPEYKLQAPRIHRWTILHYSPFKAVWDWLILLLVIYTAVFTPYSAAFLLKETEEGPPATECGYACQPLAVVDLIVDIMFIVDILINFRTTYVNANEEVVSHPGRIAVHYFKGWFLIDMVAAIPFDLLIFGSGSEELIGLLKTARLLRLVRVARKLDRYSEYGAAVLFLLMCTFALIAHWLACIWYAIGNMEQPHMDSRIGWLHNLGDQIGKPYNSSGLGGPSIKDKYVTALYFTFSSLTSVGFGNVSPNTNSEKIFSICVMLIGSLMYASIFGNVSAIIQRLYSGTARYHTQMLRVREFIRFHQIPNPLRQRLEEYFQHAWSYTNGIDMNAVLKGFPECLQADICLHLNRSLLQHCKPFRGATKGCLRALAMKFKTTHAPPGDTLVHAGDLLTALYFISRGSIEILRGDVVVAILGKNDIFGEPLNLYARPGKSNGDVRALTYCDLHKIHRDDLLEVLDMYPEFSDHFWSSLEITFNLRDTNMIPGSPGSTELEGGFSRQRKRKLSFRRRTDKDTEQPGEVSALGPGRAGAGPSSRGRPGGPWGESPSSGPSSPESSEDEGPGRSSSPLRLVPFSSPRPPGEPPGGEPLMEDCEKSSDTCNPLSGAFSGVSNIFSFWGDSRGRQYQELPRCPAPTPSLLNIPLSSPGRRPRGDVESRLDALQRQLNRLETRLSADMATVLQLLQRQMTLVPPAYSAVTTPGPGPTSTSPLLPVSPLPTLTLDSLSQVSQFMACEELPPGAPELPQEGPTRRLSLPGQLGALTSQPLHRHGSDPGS

Histamine H3 receptor (Homo sapiens, UniProt Q9Y5N1), sequence (Q9Y5N1 whole entry): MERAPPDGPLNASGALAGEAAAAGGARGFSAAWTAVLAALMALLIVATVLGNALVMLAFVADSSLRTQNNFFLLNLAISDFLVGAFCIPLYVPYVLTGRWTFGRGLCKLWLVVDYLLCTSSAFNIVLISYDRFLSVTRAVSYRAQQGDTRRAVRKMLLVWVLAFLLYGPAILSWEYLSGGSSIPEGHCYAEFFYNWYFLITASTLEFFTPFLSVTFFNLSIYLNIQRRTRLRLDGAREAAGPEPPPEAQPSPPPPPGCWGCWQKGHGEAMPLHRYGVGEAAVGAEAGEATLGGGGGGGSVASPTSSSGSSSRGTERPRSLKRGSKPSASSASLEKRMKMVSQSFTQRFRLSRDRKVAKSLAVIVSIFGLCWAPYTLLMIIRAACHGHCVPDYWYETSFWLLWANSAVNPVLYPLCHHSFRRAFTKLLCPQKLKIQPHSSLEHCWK
Histamine H3 receptor (Mus musculus, UniProt P58406), sequence (P58406 whole entry): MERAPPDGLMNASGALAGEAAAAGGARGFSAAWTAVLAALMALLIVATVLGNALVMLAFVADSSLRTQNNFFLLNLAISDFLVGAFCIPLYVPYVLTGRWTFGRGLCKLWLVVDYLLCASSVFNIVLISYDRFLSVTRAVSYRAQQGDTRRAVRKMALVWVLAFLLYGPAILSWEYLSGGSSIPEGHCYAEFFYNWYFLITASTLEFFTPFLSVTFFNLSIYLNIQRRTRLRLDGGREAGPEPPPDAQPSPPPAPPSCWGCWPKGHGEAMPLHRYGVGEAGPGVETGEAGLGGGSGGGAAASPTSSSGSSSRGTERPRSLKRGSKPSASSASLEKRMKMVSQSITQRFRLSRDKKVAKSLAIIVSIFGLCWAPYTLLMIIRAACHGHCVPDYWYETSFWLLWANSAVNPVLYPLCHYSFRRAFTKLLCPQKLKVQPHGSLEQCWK
Cytochrome P450 2D6, sequence (P10635 whole entry): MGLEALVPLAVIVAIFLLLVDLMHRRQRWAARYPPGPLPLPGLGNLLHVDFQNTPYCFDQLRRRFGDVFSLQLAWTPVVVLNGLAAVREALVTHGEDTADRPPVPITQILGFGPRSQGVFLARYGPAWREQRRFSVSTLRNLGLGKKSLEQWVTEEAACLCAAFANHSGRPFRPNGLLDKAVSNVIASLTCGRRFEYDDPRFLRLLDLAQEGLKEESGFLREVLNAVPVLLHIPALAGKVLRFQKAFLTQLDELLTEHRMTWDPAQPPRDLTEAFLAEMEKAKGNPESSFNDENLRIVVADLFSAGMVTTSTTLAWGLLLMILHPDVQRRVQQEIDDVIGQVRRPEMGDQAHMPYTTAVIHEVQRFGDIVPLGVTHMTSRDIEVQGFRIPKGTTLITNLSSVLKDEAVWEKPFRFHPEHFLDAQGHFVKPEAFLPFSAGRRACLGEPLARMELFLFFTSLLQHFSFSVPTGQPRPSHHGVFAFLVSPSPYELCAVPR
Cytochrome P450 3A4, sequence (P08684 whole entry): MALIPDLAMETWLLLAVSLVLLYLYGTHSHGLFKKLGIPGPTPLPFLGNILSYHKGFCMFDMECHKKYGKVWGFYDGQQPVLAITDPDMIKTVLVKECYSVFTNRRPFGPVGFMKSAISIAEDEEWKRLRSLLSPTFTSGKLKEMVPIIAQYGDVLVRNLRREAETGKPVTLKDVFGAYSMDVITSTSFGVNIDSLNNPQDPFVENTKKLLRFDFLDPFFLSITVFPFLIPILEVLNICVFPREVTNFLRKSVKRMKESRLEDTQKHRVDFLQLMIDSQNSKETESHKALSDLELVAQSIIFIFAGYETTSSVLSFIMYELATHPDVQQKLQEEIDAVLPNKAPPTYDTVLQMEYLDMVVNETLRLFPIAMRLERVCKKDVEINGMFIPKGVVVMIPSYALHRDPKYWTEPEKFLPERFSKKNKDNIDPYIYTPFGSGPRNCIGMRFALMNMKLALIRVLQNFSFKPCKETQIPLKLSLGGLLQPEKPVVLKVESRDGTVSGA
Cytochrome P450 2C9, sequence (P11712 whole entry): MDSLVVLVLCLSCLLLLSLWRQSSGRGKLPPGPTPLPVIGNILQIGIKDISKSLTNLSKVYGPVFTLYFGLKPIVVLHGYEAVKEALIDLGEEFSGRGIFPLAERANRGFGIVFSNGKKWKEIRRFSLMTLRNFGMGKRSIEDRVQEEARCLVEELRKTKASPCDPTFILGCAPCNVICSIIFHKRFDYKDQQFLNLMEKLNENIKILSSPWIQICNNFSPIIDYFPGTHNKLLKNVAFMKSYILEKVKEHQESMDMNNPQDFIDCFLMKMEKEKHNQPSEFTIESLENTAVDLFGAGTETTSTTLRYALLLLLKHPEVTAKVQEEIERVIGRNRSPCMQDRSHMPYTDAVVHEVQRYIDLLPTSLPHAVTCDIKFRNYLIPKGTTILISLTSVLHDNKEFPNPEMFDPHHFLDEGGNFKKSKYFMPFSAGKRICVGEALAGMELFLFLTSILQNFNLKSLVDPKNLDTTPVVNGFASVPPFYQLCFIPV

Take `c1cc([C@H]2CC[C@H](N3CCOCC3)CC2)ccc1OCCCN1CCCCC1`: the Tmax in [1] and in data set [8] was 1.5 h each time. Moreover, the half-life in data set [2] is above 10 h; in data set [3] it was 5 h. Besides, the results for the AUC in data set [4] and in data set [9] were 2110 ng·h/mL and 15600 ng·h/mL, respectively. The figures for the Cmax in data set [5] and in data set [7] were 357 ng/mL and 2380 ng/mL, respectively. For the same molecule, the ED50 in the data set with Mus musculus [6] is 1.3 mg/kg.

In turn, `COCCCS(=O)(=O)c1ccc(-c2ccc(CCN3CCC[C@H]3C)cc2)cc1` had a half-life in data set [10] of 50 h.

Turning to `OC1(c2ccc(OCCCN3CCCCC3)cc2)CCOCC1`, the Ki at Histamine H3 receptor [11] came to 4.1 nM.

Consider `OC(c1ccc(OCCCN2CCCCC2)cc1)C1CCCCC1` (stereo unspecified), for which the Ki on Histamine H3 receptor [11] worked out at 2.9 nM.

For the molecule `OC(c1ccc(OCCCN2CCCCC2)cc1)C1CCOCC1` (stereo unspecified), the Ki at Histamine H3 receptor [11] was found to be 13 nM.

Turning to `OCCc1ccc(OCCCN2CCCCC2)cc1`, the Ki on Histamine H3 receptor [11] turned out to be 32 nM.

With `CC(O)CCc1ccc(OCCCN2CCCCC2)cc1` (stereo unspecified), the Ki at Histamine H3 receptor [11] worked out at 3.3 nM.

With `CC(C)(O)CCc1ccc(OCCCN2CCCCC2)cc1`, the Ki on Histamine H3 receptor [11] was determined as 4 nM.

On to `OCC#Cc1ccc(OCCCN2CCCCC2)cc1`, for which, on Histamine H3 receptor [11], the Ki was 15 nM.

Consider `OCCC#Cc1ccc(OCCCN2CCCCC2)cc1`, for which the Ki on Histamine H3 receptor [11] came out at 19 nM.

With `O[C@H]1CC[C@H](c2ccc(OCCCN3CCCCC3)cc2)CC1`, the AUC(0-t) at 8 h in data set [12] was 4980 ng·h/mL; in data set [15] it was 18000 ng·h/mL. Further, the Ratio with Mus musculus [13] worked out at 1. The IC50 is 40300 nM at Cytochrome P450 2C9, 30300 nM on Cytochrome P450 3A4 and above 100000 nM at Cytochrome P450 2D6. Also, the Ki at Histamine H3 receptor [14] is 6.9 nM; on Histamine H3 receptor [11] it was 2.6 nM; in data set [16] it was 5800 nM. In the data set on Mus musculus [6], the ED50 is 0.3 mg/kg.

`OC1CCC(Cc2ccc(OCCCN3CCCCC3)cc2)CC1` (stereo unspecified): the Ki came out at 6.3 nM on Histamine H3 receptor [14] and 1.9 nM at Histamine H3 receptor [11].

`OCc1ccc(OCCCN2CCCCC2)cc1`: the Ki on Histamine H3 receptor [11] came out at 22.7 nM.

`CC(C)(O)c1ccc(OCCCN2CCCCC2)cc1`: at Histamine H3 receptor [11], the Ki worked out at 6.8 nM.

For the molecule `C=CC(O)c1ccc(OCCCN2CCCCC2)cc1` (stereo unspecified), the Ki on Histamine H3 receptor [14] stood at 18 nM; on Histamine H3 receptor [11] it was 8.6 nM.

In the case of `C=CCC(O)c1ccc(OCCCN2CCCCC2)cc1` (stereo unspecified), the Ki on Histamine H3 receptor [11] amounted to 6.9 nM.

With `CCC(O)(CC)c1ccc(OCCCN2CCCCC2)cc1`, the Ki at Histamine H3 receptor [14] came out at 14 nM; at Histamine H3 receptor [11], 1.4 nM.

As to `CCCC(O)(CCC)c1ccc(OCCCN2CCCCC2)cc1`, affinity on Histamine H3 receptor [14] was put at a Ki of 2.5 nM.

As to `C=CCC(O)(CC=C)c1ccc(OCCCN2CCCCC2)cc1`, the values for the Ki at Histamine H3 receptor [14] and at Histamine H3 receptor [11] were 4.3 nM and 0.54 nM, respectively.

With `OC1(c2ccc(OCCCN3CCCCC3)cc2)CCC1`, the Ki on Histamine H3 receptor [11] is 18 nM.

At Histamine H3 receptor [14], `OC1(c2ccc(OCCCN3CCCCC3)cc2)CCCC1` gave a Ki of 7.6 nM.

On to `OC1(c2ccc(OCCCN3CCCCC3)cc2)CCCCC1`, for which the Ki at Histamine H3 receptor [11] is 3.9 nM.

As to `OC1CCN([C@H]2CC[C@H](c3ccc(OCCCN4CCCCC4)cc3)CC2)CC1` (mixture of isomers), the results for the Tmax in data set [1] and in data set [8] were 3 h and 1.5 h, respectively. Also, the half-life in data set [2] is above 10 h; in [3], 6 h. Moreover, the AUC in data set [4] and in data set [9] was 1520 ng·h/mL in each case. The values for the Cmax in data set [5] and in data set [7] were 399 ng/mL and 215 ng/mL, respectively.
